In ChEMBL document CHEMBL1143055, “2,3,5-Substituted tetrahydrofurans as cancer chemopreventives. Part 1: synthesis and anti-cancer activities of 5-hydroxymethyl-2,3-diaryl-tetrahydro-furan-3-ols” (2007):

What was measured:
UACC-257 = test: Antitumor activity against human UACC257 cells; type: functional
[1] = Antitumor activity against human HL60 (TB) cells; type: functional, HL-60(TB); conditions: HL-60
K562 = test: Antitumor activity against human K562 cells; type: functional
ACHN = test: Antitumor activity against human ACHN cells; type: functional
RXF 393 = test: Antitumor activity against human RXF393 cells; type: functional
PC-3 = test: Antitumor activity against human PC3 cells; type: functional
U-251 = test: Antitumor activity against human U251 cells; type: functional
SR [2] = test: Growth inhibition of human SR cells at 1 uM; type: functional
CCRF-CEM [3] = test: Antitumor activity against human CCRF-CEM cells; type: functional
SNB-19 = test: Antitumor activity against human SNB19 cells; type: functional
786-0 = test: Antitumor activity against human 786-0 cells; type: functional
HT-29 = test: Antitumor activity against human HT29 cells; type: functional
EKVX = test: Antitumor activity against human EKVX cells; type: functional
IGROV-1 = test: Antitumor activity against human IGROV1 cells; type: functional
NCI-H460 = test: Antitumor activity against human NCI-H460 cells; type: functional
KM12 = test: Antitumor activity against human KM12 cells; type: functional
SK-MEL-5 = test: Antitumor activity against human SK-MEL-5 cells; type: functional
HOP-92 = test: Antitumor activity against human HOP92 cells; type: functional
SNB-75 = test: Antitumor activity against human SNB75 cells; type: functional
NCI-H23 = test: Antitumor activity against human NCI-H23 cells; type: functional
[4] = Antitumor activity against human HS 578T cells; type: functional
A549 = test: Antitumor activity against human A549 cells; type: functional
SR [5] = test: Antitumor activity against human SR cells; type: functional
DU-145 = test: Antitumor activity against human DU145 cells; type: functional
NCI-H522 = test: Antitumor activity against human NCI-H522 cells; type: functional
SF-539 = test: Antitumor activity against human SF539 cells; type: functional
RPMI-8226 = test: Antitumor activity against human RPMI8226 cells; type: functional
CCRF-CEM [6] = test: Growth inhibition of huam CCRF-CEM at 1 uM; type: functional; conditions: Homo sapiens
BT-549 = test: Antitumor activity against human BT549 cells; type: functional
OVCAR-5 = test: Antitumor activity against human OVCAR5 cells; type: functional
UO-31 = test: Antitumor activity against human UO31 cells; type: functional
SK-MEL-28 = test: Antitumor activity against human SK-MEL-28 cells; type: functional
OVCAR-3 = test: Antitumor activity against human OVCAR-3 cells; type: functional
COLO 205 = test: Antitumor activity against human COLO205 cells; type: functional
NCI/ADR-RES = test: Antitumor activity against human NCI/ADR-RES cells; type: functional
LOX IMVI = test: Antitumor activity against human LOX IMVI cells; type: functional
MCF7 = test: Antitumor activity against human MCF7 cells; type: functional
[7] = Antitumor activity against human […] cells; type: functional
SF-295 = test: Antitumor activity against human SF295 cells; type: functional
HCT-116 = test: Antitumor activity against human HCT116 cells; type: functional
Malme-3M = test: Antitumor activity against human MALME-3M cells; type: functional
NCI-H226 = test: Antitumor activity against human NCI-H226 cells; type: functional
UACC-62 = test: Antitumor activity against human UACC62 cells; type: functional
MOLT-4 = test: Antitumor activity against human MOLT4 cells; type: functional
HCT-15 = test: Antitumor activity against human HCT15 cells; type: functional
MDA-MB-435 = test: Antitumor activity against human MDA-MB-435 cells; type: functional
OVCAR-4 = test: Antitumor activity against human OVCAR4 cells; type: functional
CAKI-1 = test: Antitumor activity against human CAKI-1 cells; type: functional
HOP-62 = test: Antitumor activity against human HOP62 cells; type: functional
SW-620 = test: Antitumor activity against human SW620 cells; type: functional
A498 = test: Antitumor activity against human A498 cells; type: functional
SK-OV-3 = test: Antitumor activity against human SK-OV-3 cells; type: functional
TK-10 = test: Antitumor activity against human TK10 cells; type: functional
SN12C = test: Antitumor activity against human SN12C cells; type: functional
[8] = Antitumor activity against human NCI-H322 cells; type: functional
SF-268 = test: Antitumor activity against human SF268 cells; type: functional
OVCAR-8 = test: Antitumor activity against human OVCAR8 cells; type: functional
HCC 2998 = test: Antitumor activity against human HCC2998 cells; type: functional

COc1ccc([C@H]2O[C@@H](CO)C[C@]2(O)c2ccc(OC)cc2)cc1 (relative stereo)
46%: inhibition at 1 µM (CCRF-CEM [6])
> 100 µM: GI50 (UACC-257) | GI50 (K562) | GI50 (ACHN) | GI50 (PC-3) | GI50 (U-251) | GI50 (CCRF-CEM [3]) | GI50 (SNB-19) | GI50 (786-0) | GI50 (HT-29) | GI50 (EKVX) | GI50 (IGROV-1) | GI50 (NCI-H460) | GI50 (KM12) | GI50 (SK-MEL-5) | GI50 (SNB-75) | GI50 (NCI-H23) | GI50 (A549) | GI50 (DU-145) | GI50 (NCI-H522) | GI50 (SF-539) | GI50 (RPMI-8226) | GI50 (BT-549) | GI50 (OVCAR-5) | GI50 (UO-31) | GI50 (SK-MEL-28) | GI50 (OVCAR-3) | GI50 (COLO 205) | GI50 (NCI/ADR-RES) | GI50 (LOX IMVI) | GI50 (MCF7) | GI50 [7] | GI50 (SF-295) | GI50 (HCT-116) | GI50 (Malme-3M) | GI50 (NCI-H226) | GI50 (UACC-62) | GI50 (MOLT-4) | GI50 (HCT-15) | GI50 (MDA-MB-435) | GI50 (OVCAR-4) | GI50 (CAKI-1) | GI50 (HOP-62) | GI50 (SW-620) | GI50 (A498) | GI50 (SK-OV-3) | GI50 (TK-10) | GI50 (SN12C) | GI50 [8] | GI50 (SF-268) | GI50 (OVCAR-8) | GI50 (HCC 2998)
39.8 µM: GI50 [4]
50.1 µM: GI50 (SR [5])
36%: inhibition at 1 µM (SR [2])
95.5 µM: GI50 (HOP-92)
38.9 µM: GI50 [1]
28.2 µM: GI50 (RXF 393)

CS(=O)(=O)c1ccc([C@H]2O[C@@H](CO)C[C@]2(O)c2ccc(S(C)(=O)=O)cc2)cc1 (relative stereo)
> 100 µM: GI50 (UACC-257) | GI50 [1] | GI50 (K562) | GI50 (ACHN) | GI50 (RXF 393) | GI50 (PC-3) | GI50 (U-251) | GI50 (CCRF-CEM [3]) | GI50 (SNB-19) | GI50 (786-0) | GI50 (HT-29) | GI50 (EKVX) | GI50 (IGROV-1) | GI50 (NCI-H460) | GI50 (KM12) | GI50 (SK-MEL-5) | GI50 (HOP-92) | GI50 (SNB-75) | GI50 (NCI-H23) | GI50 [4] | GI50 (A549) | GI50 (SR [5]) | GI50 (DU-145) | GI50 (NCI-H522) | GI50 (SF-539) | GI50 (RPMI-8226) | GI50 (BT-549) | GI50 (OVCAR-5) | GI50 (UO-31) | GI50 (SK-MEL-28) | GI50 (OVCAR-3) | GI50 (COLO 205) | GI50 (NCI/ADR-RES) | GI50 (LOX IMVI) | GI50 (MCF7) | GI50 [7] | GI50 (SF-295) | GI50 (HCT-116) | GI50 (Malme-3M) | GI50 (NCI-H226) | GI50 (UACC-62) | GI50 (MOLT-4) | GI50 (HCT-15) | GI50 (MDA-MB-435) | GI50 (OVCAR-4) | GI50 (CAKI-1) | GI50 (HOP-62) | GI50 (SW-620) | GI50 (A498) | GI50 (SK-OV-3) | GI50 (TK-10) | GI50 (SN12C) | GI50 [8] | GI50 (SF-268) | GI50 (OVCAR-8) | GI50 (HCC 2998)

O=c1[nH]cc(F)c(=O)[nH]1 [FLUOROURACIL]
158 µM: GI50 (HOP-92) | GI50 (OVCAR-5) | GI50 (SK-OV-3)
1.26 µM: GI50 (SF-539)
39.8 µM: GI50 (U-251) | GI50 (NCI-H522) | GI50 (NCI/ADR-RES)
1 µM: GI50 (NCI-H460)
126 µM: GI50 (SNB-19) | GI50 (TK-10)
20 µM: GI50 [1] | GI50 (K562) | GI50 (Malme-3M) | GI50 (HOP-62) | GI50 [8] | GI50 (OVCAR-8)
2 µM: GI50 (A549)
31.6 µM: GI50 (CCRF-CEM [3])
200 µM: GI50 (SNB-75)
100 µM: GI50 (UACC-257) | GI50 (BT-549)
6.31 µM: GI50 (HT-29) | GI50 (COLO 205) | GI50 (LOX IMVI) | GI50 (HCT-15)
3.98 µM: GI50 (SR [5]) | GI50 (CAKI-1)
251 µM: GI50 [4] | GI50 (NCI-H226)
501 µM: GI50 [7]
0.398 µM: GI50 (HCT-116)
25.1 µM: GI50 (OVCAR-3) | GI50 (SW-620) | GI50 (SN12C)
50.1 µM: GI50 (RXF 393) | GI50 (PC-3) | GI50 (SK-MEL-28) | GI50 (SF-295) | GI50 (SF-268)
10 µM: GI50 (ACHN) | GI50 (KM12) | GI50 (DU-145) | GI50 (MDA-MB-435) | GI50 (A498)
63.1 µM: GI50 (OVCAR-4)
5.01 µM: GI50 (RPMI-8226) | GI50 (UO-31)
1.58 µM: GI50 (MCF7) | GI50 (HCC 2998)
12.6 µM: GI50 (786-0) | GI50 (IGROV-1) | GI50 (SK-MEL-5) | GI50 (NCI-H23) | GI50 (UACC-62) | GI50 (MOLT-4)
316 µM: GI50 (EKVX)
